The nature of test [1]: Sensory testing of offensive odor intensity, model odors (Example 8). Set-up: species or system human. The procedure:
These fragrance compositions 1 to 48 were confirmed for their ability to suppress offensive odors by sensory testing. As offensive odors, the model age-related body odor, the model underarm odor and the model musty odor indicated in Tables 8 to 10 below were each diluted 100-fold and added dropwise separately in a volume of […] and fragrance compositions 1 to 48 were each added dropwise separately in a volume of 1 μl as a test substance to a cotton ball, which was then enclosed in a plastic bottle (OZO-40, Takemoto Yohki Co., Ltd., Japan). Each bottle was allowed to stand for 1 hour at room temperature to fully volatilize odor molecules in the bottle. Sensory testing was made by 10 panelists assuming that the odor intensity was set to 8 for each offensive odor when added dropwise alone, whereby the offensive odor intensity when a test substance was mixed was evaluated between 0 and 10. The resulting numerical values were used to calculate their mean value.

Test [2] is described as follows: Sensory testing of offensive odor intensity, single offensive odors (Example 7). More on the design: species or system human. To be noted: for Offensive odor intensity 1,5-Octadien-3-ol: 1,5-octadien-3-ol diluted 100-fold with triethyl citrate; for Offensive odor intensity 1,5-Octadien-3-ol / Offensive odor intensity 1,5-Octadien-3-one / Offensive odor intensity 1-Octen-3-ol / Offensive odor intensity 1-Octen-3-one / Offensive odor intensity Trans-2-nonenal / Offensive odor intensity Trans-2-octenal: 10 μl, test substance 1 μl, odor alone set to 8, scale 0 to 10, mean of 10 panelists; for Offensive odor intensity 1,5-Octadien-3-one: 1,5-octadien-3-one diluted 1000-fold with triethyl citrate; for Offensive odor intensity 1-Octen-3-ol: 1-octen-3-ol diluted 100-fold with triethyl citrate; for Offensive odor intensity 1-Octen-3-one: 1-octen-3-one diluted 100-fold with triethyl citrate; for suppressive effect on offensive odors (each offensive odor of Example 7): summary in words for all six offensive odors; for Offensive odor intensity Trans-2-nonenal: trans-2-nonenal diluted 1000-fold with triethyl citrate; for Offensive odor intensity Trans-2-octenal: trans-2-octenal diluted 1000-fold with triethyl citrate. The text has this:
Test substances having inhibitory activity on receptor activity were confirmed for their ability to suppress offensive odors by sensory testing. As offensive odors, trans-2-nonenal diluted 1000-fold with triethyl citrate, trans-2-octenal diluted 1000-fold with triethyl citrate, 1-octen-3-one diluted 100-fold with triethyl citrate, 1,5-octadien-3-one diluted 1000-fold with triethyl citrate, 1-octen-3-ol diluted 100-fold with triethyl citrate, and 1,5-octadien-3-ol diluted 100-fold with triethyl citrate were each added dropwise separately in a volume of 10 μl and a test substance was added dropwise in a volume of 1 μl to a cotton ball, which was then enclosed in a plastic bottle (OZO-40, Takemoto Yohki Co., Ltd., Japan). Each bottle was allowed to stand for 1 hour at room temperature to fully volatilize odor molecules in the bottle. Sensory testing was made by 10 panelists assuming that the odor intensity was set to 8 for each offensive odor when added dropwise alone, whereby the offensive odor intensity when a test substance was mixed was evaluated between 0 and 10. The resulting numerical values were used to calculate their mean value.

Another test addresses T1, OR2C1 (Homo sapiens, UniProt O95371).
T1 construct: N-terminal 20 amino acid residues of bovine rhodopsin (Rho tag); expressed in transfected cells; host or cells: HEK293T
T1 sequence (O95371 1-312): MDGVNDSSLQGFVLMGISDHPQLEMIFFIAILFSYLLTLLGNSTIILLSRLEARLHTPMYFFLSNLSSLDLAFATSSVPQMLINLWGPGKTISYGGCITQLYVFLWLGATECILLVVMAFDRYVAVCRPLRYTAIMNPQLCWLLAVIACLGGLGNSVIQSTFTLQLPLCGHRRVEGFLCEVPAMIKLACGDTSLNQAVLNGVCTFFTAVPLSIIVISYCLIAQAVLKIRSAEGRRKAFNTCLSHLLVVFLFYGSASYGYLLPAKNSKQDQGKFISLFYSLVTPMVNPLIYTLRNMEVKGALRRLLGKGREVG
In words: Suppressive effect of offensive odor-suppressing materials on the response of OR2C1. The test is classed as cell-based. To be noted: for suppressive effect on the response of OR2C1 to 1-octen-3-one: mixed at various concentrations with 30 μM 1-octen-3-one, response without material set to 100, FIGS. 7 and 8; for suppressive effect on the response of OR2C1 to trans-2-nonenal: mixed at various concentrations with 60 μM trans-2-nonenal, FIGS. 9 and 10; for suppressing the response of OR2C1: odorous substance not stated. The method, then:
(§1) After removal of the culture solutions, an odorous substance serving as an analyte, which had been prepared at a given concentration with CD293 (gibco) medium (supplemented with […] L-glutamine), was added in 50 μL volumes to stimulate the cells for 3 hours, followed by luciferase activity measurement in accordance with the usage of a Dual-Luciferase Reporter Assay System (Promega). The response intensity of each olfactory receptor polypeptide was expressed as a fold increase value, which was determined by dividing the luciferase activity generated upon stimulation with the odorous substance by the luciferase activity generated in a test system not containing the odorous substance.
According to the same procedure as shown in Example 1, offensive odor-suppressing materials 2-methyl-4-(2,2,3-trimethylcyclopent-3-enyl)but-2-en-1-ol (also known as 2-methyl-4-(2,2,3-trimethyl-3-cyclopentenyl)-2-buten-1-ol) (Hindinol®) and 1-(2,2,6-trimethylcyclohexyl)hexan-3-ol (Dextramber®) were each mixed at various concentrations with 30 μM 1-octen-3-one, and the cells engineered to express OR2C1 were used to measure the response of this receptor to 1-octen-3-one. The ratio of the fold increase value obtained in the test using the offensive odor-suppressing materials was determined assuming that the fold increase value obtained in the test without mixing the offensive odor-suppressing materials was set to 100.
According to the same procedure as shown in Example 5, offensive odor-suppressing materials 2-methyl-4-(2,2,3-trimethylcyclopent-3-enyl)but-2-en-1-ol (Hindinol®) and 1-(2,2,6-trimethylcyclohexyl)hexan-3-ol (Dextramber®) were each mixed at various concentrations with 60 μM trans-2-nonenal, and the cells engineered to express OR2C1 were used to measure the response of this receptor to trans-2-nonenal.

Test [3] concerns the target T2, human olfactory receptor OR2C1 (Homo sapiens, UniProt O95371).
T2 construct: N-terminal 20 amino acid residues of bovine rhodopsin (Rho tag); expressed in transfected cells; host or cells: HEK293T
T2 sequence (O95371 1-312): T1 sequence (O95371 1-312)
In words: Luciferase reporter gene assay, response of OR2C1 to odorous substances. The test is classed as cell-based. To be noted: various concentrations; cells stimulated 3 hours; FIGS. 1 and 3.
Source text: Human olfactory receptor genes were obtained by PCR cloning with Human Genomic DNA: Female (Promega) on the basis of their sequence information registered in GenBank. Into pME18S vectors, the N-terminal 20 amino acid residues of bovine rhodopsin were integrated and the resulting human olfactory receptor genes were integrated respectively downstream thereof to obtain human olfactory receptor gene expression vectors. […]
as §1, with “substance. […]” for “substance.”
In general terms: A reporter such as luciferase makes a cellular process visible.

Test [4] has as its system cells not engineered to express the olfactory receptors. In words: Mock test of the luciferase reporter gene assay. The test is classed as cell-based, human. The method, then:
(§2) Each human olfactory receptor gene expression vector (0.05 μg), RTP1S vector (0.01 μg), firefly luciferase vector pGL4.29 containing a cAMP response element promoter (Promega, 0.01 μg) and Renilla luciferase vector pGL4.74 containing a thymidine kinase promoter (Promega, 0.005 μg) were dissolved in 10 μL of Opti-MEMI (gibco) to give a gene solution (for one well). HEK293T cells were seeded in 100 μL volumes into 96-well plates (Biocoat, Corning) at a cell density reaching confluence after 24 hours, and the gene solutions were added to the respective wells to cause gene transfer into the cells by lipofection techniques in accordance with the usage of Lipofectamine 3000, followed by culture at 37° C. under a 5% carbon dioxide atmosphere for 24 hours.
as §1
(§3) The cells engineered to express human olfactory receptors OR2C1 and OR4Q3 were used to measure the response of these receptors to various concentrations of 1-octen-3-one by the luciferase reporter gene assay.

Test [5] concerns the target T3, human olfactory receptor OR4Q3 (Homo sapiens, UniProt Q8NH05).
T3 construct: N-terminal 20 amino acid residues of bovine rhodopsin (Rho tag); expressed in transfected cells; host or cells: HEK293T
T3 sequence (Q8NH05 1-313): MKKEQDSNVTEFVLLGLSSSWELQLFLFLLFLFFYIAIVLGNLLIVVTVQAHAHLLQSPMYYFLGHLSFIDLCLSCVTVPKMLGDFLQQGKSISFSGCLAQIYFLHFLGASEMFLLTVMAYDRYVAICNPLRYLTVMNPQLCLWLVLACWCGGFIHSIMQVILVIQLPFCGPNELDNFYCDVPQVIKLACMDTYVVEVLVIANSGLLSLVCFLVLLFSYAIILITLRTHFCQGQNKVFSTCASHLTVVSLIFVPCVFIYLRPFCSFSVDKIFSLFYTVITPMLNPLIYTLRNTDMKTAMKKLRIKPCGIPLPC
The test can be described thus: Luciferase reporter gene assay, response of OR4Q3 to odorous substances. The test is classed as cell-based. To be noted: various concentrations; cells stimulated 3 hours; FIGS. 2, 4, 5, 6. The procedure: Human olfactory receptor genes were obtained by PCR cloning with Human Genomic DNA: Female (Promega) on the basis of their sequence information registered in GenBank. Into pME18S vectors, the N-terminal 20 amino acid residues of bovine rhodopsin were integrated and the resulting human olfactory receptor genes were integrated respectively downstream thereof to obtain human olfactory receptor gene expression vectors.
as §2, §1, §3
According to the same procedure as shown in Example 1, the cells engineered to express human olfactory receptors OR2C1 and OR4Q3 were used to measure the response of these receptors to various concentrations of 1,5-octadien-3-one by the luciferase reporter gene assay.
According to the same procedure as shown in Example 1, the cells engineered to express human olfactory receptor OR4Q3 were used to measure the response of this receptor to various concentrations of 1-octen-3-ol by the luciferase reporter gene assay. […]

The values that follow come from patent US12533310B2, “Fragrance or flavor composition” (Takasago International Corporation, priority 2019, dated 2026).

Turning to `CCCC(O)CCC1C(C)CCCC1(C)C` (stereo not drawn) [Dextramber, 1-(2,2,6-trimethylcyclohexyl)hexan-3-ol], the “suppressive effect on offensive odors (each model odor of Example 8)” value in test [1] (summary in words for the model odors) is “found to suppress each offensive odor”. In test [2], the “Offensive odor intensity 1,5-Octadien-3-ol” value was determined as 1.9, the “Offensive odor intensity 1,5-Octadien-3-one” value is 2.6, the “Offensive odor intensity 1-Octen-3-ol” value is listed as 2.0 and the “Offensive odor intensity 1-Octen-3-one” value turned out to be 2.3. In test [2], the “suppressive effect on offensive odors (each offensive odor of Example 7)” value was “found to suppress each offensive odor”, the “Offensive odor intensity Trans-2-nonenal” value is 2.8 and the “Offensive odor intensity Trans-2-octenal” value turned out to be 2.2. Also, at OR2C1, the “suppressive effect on the response of OR2C1 to 1-octen-3-one” value was “reducing the response of OR2C1 to 1-octen-3-one in a concentration-dependent manner”, the “suppressive effect on the response of OR2C1 to trans-2-nonenal” value is given as “reducing the response of OR2C1 to trans-2-nonenal in a concentration-dependent manner” and the “suppressing the response of OR2C1” value is given as “suppressing the response of OR2C1”.

As for `C=CC(=O)CCCCC` [1-octen-3-one], the “response of olfactory receptor OR2C1 to the odorous substance (fold increase value)” value in test [3] is “respond to 1-octen-3-one in a concentration-dependent manner”. Besides, the “response in Mock test” value in test [4] is “no response was observed in a Mock test”. In test [5], the “response of olfactory receptor OR4Q3 to the odorous substance (fold increase value)” value is listed as “respond to 1-octen-3-one in a concentration-dependent manner”.

As to `CC(=CCC1CC=C(C)C1(C)C)CO` (stereo not drawn) [Hindinol, 2-methyl-4-(2,2,3-trimethylcyclopent-3-enyl)but-2-en-1-ol], the “Offensive odor intensity Model age-related body odor” value in test [1] (model odor of Table 8 diluted 100-fold, fragrance composition 1 μl, odor alone set to 8, scale 0 to 10, mean of 10 panelists) is “suppress the intensity of the model age-related body odor and the model underarm odor”. The “Offensive odor intensity Model underarm odor” value in test [1] (model odor of Table 9 diluted 100-fold, fragrance composition 1 μl, odor alone set to 8, scale 0 to 10, mean of 10 panelists) is “suppress the intensity of the model age-related body odor and the model underarm odor”. At OR2C1, the “suppressive effect on the response of OR2C1 to 1-octen-3-one” value is on record as “reducing the response of OR2C1 to 1-octen-3-one in a concentration-dependent manner” and the “suppressive effect on the response of OR2C1 to trans-2-nonenal” value is given as “reducing the response of OR2C1 to trans-2-nonenal in a concentration-dependent manner”.

For `O=C(OCc1ccccc1)c1ccccc1O` [Benzyl salicylate, reference compound], in test [2], the “Offensive odor intensity 1,5-Octadien-3-ol” value was 6.5, the “Offensive odor intensity 1,5-Octadien-3-one” value was 7.8, the “Offensive odor intensity 1-Octen-3-ol” value is given as 7.0 and the “Offensive odor intensity 1-Octen-3-one” value was 7.5. Further, in test [2], the “Offensive odor intensity Trans-2-nonenal” value is 7.9 and the “Offensive odor intensity Trans-2-octenal” value is recorded as 7.5.

With `C=CC(O)CCCCC` (stereo not drawn) [1-octen-3-ol], in test [4], the “response in Mock test” value is given as “no response was observed in a Mock test”. Moreover, the “response of olfactory receptor OR4Q3 to the odorous substance (fold increase value)” value in test [5] is given as “respond to 1-octen-3-ol in a concentration-dependent manner”.

On to `O=C1CCCCCCCCCCCC(=O)OCCO1` [MUSK T, 1,4-dioxacycloheptadecane-5,17-dione], for which, in test [2], the “Offensive odor intensity 1,5-Octadien-3-ol” value amounted to 3.0, the “Offensive odor intensity 1,5-Octadien-3-one” value worked out at 3.2, the “Offensive odor intensity 1-Octen-3-ol” value came out at 3.2 and the “Offensive odor intensity 1-Octen-3-one” value came to 2.8. Further, in test [2], the “suppressive effect on offensive odors (each offensive odor of Example 7)” value is recorded as “found to suppress each offensive odor”, the “Offensive odor intensity Trans-2-nonenal” value is 2.9 and the “Offensive odor intensity Trans-2-octenal” value amounted to 2.9. Further, on OR2C1, the “suppressing the response of OR2C1” value is given as “suppressing the response of OR2C1”.

`C=CC(O)CC=CCC` (stereo not drawn) [1,5-octadien-3-ol]: the “response in Mock test” value in test [4] is listed as “no response was observed in a Mock test”. In addition, the “response of olfactory receptor OR4Q3 to the odorous substance (fold increase value)” value in test [5] is “respond to 1,5-octadien-3-ol in a concentration-dependent manner”.

As for `C=CC(=O)CC=CCC` [1,5-octadien-3-one], in test [3], the “response of olfactory receptor OR2C1 to the odorous substance (fold increase value)” value was “respond to 1,5-octadien-3-one in a concentration-dependent manner”. Moreover, the “response in Mock test” value in test [4] is “no response was observed in a Mock test”. In test [5], the “response of olfactory receptor OR4Q3 to the odorous substance (fold increase value)” value is “respond to 1,5-octadien-3-one in a concentration-dependent manner”.
